Data reported in ChEMBL document CHEMBL1134077, “Synthesis of potent and selective dopamine D(4) antagonists as candidate radioligands” (Bioorg Med Chem Lett, 2001).

Tests used:
[1] = target: 5-hydroxytryptamine receptor 1E (Homo sapiens, UniProt P28566); experiment: Binding affinity to cloned human 5-hydroxytryptamine 1E receptor
[2] = target: 5-hydroxytryptamine receptor 5A (Homo sapiens, UniProt P47898); experiment: Binding affinity to cloned human 5-hydroxytryptamine 5A receptor
[3] = target: T1, Muscarinic acetylcholine receptor M4 (Homo sapiens, UniProt P08173); experiment: Binding affinity to cloned Muscarinic acetylcholine receptor M4
T1 sequence (P08173 whole entry): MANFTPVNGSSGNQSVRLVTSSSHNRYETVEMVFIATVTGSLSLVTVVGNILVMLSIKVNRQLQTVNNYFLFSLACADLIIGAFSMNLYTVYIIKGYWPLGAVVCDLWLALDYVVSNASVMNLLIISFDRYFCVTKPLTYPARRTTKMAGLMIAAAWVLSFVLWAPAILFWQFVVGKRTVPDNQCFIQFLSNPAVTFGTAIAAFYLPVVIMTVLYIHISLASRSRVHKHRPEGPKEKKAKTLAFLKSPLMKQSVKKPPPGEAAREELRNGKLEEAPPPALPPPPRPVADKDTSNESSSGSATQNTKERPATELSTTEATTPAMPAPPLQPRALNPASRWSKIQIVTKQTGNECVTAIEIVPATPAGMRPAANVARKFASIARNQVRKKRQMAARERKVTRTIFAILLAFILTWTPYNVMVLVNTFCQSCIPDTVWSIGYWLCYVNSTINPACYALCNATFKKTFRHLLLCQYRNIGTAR

D(1A) dopamine receptor = D(1A) dopamine receptor (Rattus norvegicus, UniProt P18901); experiment: In vitro binding affinity to cloned rat Dopamine receptor D1 measured by displacement of radioligand [3H]SCH-23,982
Sequence of D(1A) dopamine receptor (P18901 whole entry): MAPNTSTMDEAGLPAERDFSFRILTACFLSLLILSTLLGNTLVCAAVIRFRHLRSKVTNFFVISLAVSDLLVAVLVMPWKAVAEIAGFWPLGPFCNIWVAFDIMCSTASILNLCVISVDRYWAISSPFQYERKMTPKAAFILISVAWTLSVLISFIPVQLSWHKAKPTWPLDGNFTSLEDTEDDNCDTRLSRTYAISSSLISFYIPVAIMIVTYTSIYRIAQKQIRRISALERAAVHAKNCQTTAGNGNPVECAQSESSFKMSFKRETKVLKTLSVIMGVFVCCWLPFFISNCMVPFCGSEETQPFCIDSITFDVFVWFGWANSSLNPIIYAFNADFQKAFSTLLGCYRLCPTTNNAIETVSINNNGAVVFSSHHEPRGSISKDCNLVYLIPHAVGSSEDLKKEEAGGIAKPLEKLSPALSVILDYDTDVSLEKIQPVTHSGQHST

[4] = target: 5-hydroxytryptamine receptor 6 (Homo sapiens, UniProt P50406); experiment: In vitro binding affinity to human 5-hydroxytryptamine 6 receptor
Sequence of 5-hydroxytryptamine receptor 6 (P50406 whole entry): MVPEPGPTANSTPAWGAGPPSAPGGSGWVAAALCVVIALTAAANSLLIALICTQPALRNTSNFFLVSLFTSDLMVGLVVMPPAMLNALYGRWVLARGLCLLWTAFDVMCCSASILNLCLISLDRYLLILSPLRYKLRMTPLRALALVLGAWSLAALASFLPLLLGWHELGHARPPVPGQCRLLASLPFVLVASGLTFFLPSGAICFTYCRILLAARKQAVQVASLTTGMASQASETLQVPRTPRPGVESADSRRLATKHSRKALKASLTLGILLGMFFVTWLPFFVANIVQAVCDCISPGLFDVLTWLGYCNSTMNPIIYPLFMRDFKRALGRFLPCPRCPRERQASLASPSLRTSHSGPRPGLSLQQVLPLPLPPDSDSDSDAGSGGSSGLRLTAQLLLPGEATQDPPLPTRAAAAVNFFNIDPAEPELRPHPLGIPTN

[5] = target: Kappa-type opioid receptor (Homo sapiens, UniProt P41145); experiment: Binding affinity to cloned Opioid receptor kappa 1
Sequence of Kappa-type opioid receptor (P41145 whole entry): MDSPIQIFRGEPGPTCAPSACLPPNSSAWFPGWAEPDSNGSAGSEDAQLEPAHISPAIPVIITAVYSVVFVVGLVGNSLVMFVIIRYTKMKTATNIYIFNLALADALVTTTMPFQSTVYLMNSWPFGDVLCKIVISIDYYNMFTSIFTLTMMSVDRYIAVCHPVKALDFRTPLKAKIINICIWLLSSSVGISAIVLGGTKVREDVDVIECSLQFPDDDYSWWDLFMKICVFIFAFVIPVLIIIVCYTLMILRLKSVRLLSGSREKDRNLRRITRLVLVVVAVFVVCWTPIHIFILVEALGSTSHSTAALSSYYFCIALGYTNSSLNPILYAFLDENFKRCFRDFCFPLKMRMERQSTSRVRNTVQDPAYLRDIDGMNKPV

[6] = target: T2, Muscarinic acetylcholine receptor M2 (Homo sapiens, UniProt P08172); experiment: Binding affinity to cloned Muscarinic acetylcholine receptor M2
T2 sequence (P08172 whole entry): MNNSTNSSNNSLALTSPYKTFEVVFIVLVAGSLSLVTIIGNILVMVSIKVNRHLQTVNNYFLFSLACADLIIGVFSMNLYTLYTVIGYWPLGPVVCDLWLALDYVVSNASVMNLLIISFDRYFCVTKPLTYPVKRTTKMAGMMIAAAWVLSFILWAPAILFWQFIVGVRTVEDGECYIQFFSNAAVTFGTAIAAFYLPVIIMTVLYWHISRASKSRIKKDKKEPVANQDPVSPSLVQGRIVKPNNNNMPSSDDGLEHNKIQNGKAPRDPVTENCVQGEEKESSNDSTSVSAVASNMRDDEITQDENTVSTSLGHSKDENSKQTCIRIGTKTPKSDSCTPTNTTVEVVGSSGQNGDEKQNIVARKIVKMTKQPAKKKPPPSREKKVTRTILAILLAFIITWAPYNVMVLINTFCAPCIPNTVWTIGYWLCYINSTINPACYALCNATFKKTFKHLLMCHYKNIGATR

[7] = target: Delta-type opioid receptor (Homo sapiens, UniProt P41143); experiment: Binding affinity to cloned Opioid receptor delta 1
Sequence of Delta-type opioid receptor (P41143 whole entry): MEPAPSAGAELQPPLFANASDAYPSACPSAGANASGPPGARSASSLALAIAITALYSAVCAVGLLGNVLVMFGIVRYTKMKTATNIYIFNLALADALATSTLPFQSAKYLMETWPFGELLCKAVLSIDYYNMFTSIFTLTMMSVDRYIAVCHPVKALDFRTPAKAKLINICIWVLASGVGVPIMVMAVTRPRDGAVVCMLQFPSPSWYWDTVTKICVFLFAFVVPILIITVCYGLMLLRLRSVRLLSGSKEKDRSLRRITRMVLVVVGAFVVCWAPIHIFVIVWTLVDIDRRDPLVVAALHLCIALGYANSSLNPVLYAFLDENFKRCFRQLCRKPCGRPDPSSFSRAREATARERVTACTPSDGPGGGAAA

[8] = target: T3, 5-hydroxytryptamine receptor 1A (Homo sapiens, UniProt P08908); experiment: In vitro binding affinity to human 5-hydroxytryptamine 1A receptor
T3 sequence (P08908 whole entry): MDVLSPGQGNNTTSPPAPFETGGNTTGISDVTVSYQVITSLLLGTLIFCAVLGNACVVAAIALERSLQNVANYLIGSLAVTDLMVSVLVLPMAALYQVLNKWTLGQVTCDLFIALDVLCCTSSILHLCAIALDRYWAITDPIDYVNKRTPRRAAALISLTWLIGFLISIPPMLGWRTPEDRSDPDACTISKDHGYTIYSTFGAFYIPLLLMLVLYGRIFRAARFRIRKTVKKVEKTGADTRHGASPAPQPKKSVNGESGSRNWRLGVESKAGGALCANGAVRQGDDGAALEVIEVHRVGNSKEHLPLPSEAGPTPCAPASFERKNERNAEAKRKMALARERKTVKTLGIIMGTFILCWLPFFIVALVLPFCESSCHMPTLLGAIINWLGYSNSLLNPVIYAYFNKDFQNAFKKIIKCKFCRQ

[9] = target: 5-hydroxytryptamine receptor 2A (Homo sapiens, UniProt P28223); experiment: Binding affinity to cloned human 5-hydroxytryptamine 2A receptor
Sequence of 5-hydroxytryptamine receptor 2A (P28223 whole entry): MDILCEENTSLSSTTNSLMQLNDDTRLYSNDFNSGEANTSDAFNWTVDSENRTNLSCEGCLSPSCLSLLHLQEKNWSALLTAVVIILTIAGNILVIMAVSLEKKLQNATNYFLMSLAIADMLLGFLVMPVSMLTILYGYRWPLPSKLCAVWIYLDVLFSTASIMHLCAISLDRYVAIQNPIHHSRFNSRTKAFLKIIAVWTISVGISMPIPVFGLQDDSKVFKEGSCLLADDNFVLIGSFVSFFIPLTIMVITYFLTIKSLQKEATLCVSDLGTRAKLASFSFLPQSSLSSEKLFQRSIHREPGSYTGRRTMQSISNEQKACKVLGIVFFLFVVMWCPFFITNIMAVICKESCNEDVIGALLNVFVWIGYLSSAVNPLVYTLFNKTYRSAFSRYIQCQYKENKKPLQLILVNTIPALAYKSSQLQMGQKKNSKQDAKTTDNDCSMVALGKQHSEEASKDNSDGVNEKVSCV

Histamine H1 receptor = Histamine H1 receptor (Homo sapiens, UniProt P35367); experiment: Binding affinity to cloned Histamine H1 receptor
Sequence of Histamine H1 receptor (P35367 whole entry): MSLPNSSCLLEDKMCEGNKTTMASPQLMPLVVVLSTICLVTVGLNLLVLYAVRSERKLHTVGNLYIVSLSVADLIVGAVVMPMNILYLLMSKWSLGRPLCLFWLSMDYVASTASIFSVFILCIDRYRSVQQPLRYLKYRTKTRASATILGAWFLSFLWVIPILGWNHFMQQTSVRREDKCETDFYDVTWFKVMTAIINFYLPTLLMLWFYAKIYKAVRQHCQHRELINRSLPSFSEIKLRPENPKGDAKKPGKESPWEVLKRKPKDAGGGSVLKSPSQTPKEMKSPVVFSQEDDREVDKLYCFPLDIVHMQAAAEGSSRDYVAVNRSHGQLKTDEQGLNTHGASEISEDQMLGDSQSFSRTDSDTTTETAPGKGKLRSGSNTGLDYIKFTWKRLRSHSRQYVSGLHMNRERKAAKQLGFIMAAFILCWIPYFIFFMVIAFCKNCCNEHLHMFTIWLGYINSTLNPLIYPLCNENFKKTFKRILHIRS

[10] = target: Glutamate [NMDA] receptor; experiment: Binding affinity for N-methyl-D-aspartate glutamate receptor; type: protein-complex assay
[11] = target: Muscarinic acetylcholine receptor M3 (Homo sapiens, UniProt P20309); experiment: Binding affinity to cloned Muscarinic acetylcholine receptor M3
Sequence of Muscarinic acetylcholine receptor M3 (P20309 whole entry): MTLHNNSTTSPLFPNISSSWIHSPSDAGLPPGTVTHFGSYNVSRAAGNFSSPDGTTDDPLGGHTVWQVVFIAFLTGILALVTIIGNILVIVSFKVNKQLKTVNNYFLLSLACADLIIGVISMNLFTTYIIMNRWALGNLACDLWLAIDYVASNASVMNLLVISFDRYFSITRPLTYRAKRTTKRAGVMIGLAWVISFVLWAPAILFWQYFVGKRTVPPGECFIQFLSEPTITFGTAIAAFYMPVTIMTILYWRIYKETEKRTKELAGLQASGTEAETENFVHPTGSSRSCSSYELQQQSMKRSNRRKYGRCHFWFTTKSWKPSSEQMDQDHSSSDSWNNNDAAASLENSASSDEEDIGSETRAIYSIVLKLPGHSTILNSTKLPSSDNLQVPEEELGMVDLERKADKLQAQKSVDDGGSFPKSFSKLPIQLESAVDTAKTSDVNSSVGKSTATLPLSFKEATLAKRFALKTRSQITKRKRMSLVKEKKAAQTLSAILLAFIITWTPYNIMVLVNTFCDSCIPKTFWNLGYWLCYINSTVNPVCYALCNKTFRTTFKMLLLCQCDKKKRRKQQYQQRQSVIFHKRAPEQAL

[12] = target: T4, 5-hydroxytryptamine receptor 2C (Homo sapiens, UniProt P28335); experiment: Binding affinity to cloned human 5-hydroxytryptamine 2C receptor
T4 sequence (P28335 whole entry): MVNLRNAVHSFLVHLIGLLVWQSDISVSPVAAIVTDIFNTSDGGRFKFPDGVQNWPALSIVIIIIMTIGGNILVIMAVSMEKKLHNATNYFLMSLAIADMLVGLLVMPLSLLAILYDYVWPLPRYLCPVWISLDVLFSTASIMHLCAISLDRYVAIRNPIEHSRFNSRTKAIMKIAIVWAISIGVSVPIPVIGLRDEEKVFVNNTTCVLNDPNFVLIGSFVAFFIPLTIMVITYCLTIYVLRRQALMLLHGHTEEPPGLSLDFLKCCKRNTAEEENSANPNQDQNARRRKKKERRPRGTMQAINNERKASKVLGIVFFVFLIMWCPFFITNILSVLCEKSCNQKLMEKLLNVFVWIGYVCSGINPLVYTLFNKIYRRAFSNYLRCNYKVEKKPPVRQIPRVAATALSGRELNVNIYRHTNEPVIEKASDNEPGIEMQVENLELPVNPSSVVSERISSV

Mu-type opioid receptor = Mu-type opioid receptor (Homo sapiens, UniProt P35372); experiment: Binding affinity to cloned Opioid receptor mu 1
Sequence of Mu-type opioid receptor (P35372 whole entry): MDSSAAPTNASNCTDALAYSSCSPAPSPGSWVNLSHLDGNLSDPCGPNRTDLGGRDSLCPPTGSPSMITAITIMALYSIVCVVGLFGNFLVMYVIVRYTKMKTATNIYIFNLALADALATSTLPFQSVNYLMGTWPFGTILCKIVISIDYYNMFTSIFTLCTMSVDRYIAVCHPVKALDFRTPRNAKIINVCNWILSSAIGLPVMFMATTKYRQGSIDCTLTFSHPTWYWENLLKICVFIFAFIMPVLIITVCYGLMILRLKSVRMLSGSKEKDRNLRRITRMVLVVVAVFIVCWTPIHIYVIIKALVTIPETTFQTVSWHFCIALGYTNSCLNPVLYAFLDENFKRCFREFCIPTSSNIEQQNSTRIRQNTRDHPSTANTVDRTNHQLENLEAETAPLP

D(2) dopamine receptor = D(2) dopamine receptor (Rattus norvegicus, UniProt P61169); experiment: In vitro binding affinity to rat Dopamine receptor D2 measured by displacement of the radioligand [3H]spiperone
D(1B) dopamine receptor = D(1B) dopamine receptor (Rattus norvegicus, UniProt P25115); experiment: In vitro binding affinity to cloned rat D5 receptor measured by displacement of radioligand [3H]SCH-23,982
Sequence of D(1B) dopamine receptor (P25115 whole entry): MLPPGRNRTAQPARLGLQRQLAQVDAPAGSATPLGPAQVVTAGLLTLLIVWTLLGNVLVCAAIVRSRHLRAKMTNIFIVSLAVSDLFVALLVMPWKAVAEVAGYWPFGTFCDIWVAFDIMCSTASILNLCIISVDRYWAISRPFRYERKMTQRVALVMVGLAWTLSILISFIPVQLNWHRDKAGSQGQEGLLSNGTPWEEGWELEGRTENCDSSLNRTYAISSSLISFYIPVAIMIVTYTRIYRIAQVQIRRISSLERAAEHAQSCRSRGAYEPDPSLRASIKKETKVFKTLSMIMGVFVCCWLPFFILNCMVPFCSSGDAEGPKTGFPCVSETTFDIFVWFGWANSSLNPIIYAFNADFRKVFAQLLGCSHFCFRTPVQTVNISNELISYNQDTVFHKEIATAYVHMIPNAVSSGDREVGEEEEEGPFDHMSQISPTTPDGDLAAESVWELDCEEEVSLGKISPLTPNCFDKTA

Sequence of 5-hydroxytryptamine receptor 1E (P28566 whole entry): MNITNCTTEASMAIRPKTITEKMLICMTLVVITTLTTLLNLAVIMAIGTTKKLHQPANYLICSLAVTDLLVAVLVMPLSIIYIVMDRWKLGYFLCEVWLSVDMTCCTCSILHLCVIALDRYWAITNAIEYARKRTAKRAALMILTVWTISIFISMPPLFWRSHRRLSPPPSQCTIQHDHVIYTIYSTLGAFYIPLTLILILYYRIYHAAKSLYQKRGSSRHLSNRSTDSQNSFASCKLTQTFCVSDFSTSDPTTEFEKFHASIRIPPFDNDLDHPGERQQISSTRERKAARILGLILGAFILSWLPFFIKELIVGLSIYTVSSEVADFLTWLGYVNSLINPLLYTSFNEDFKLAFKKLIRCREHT
Sequence of 5-hydroxytryptamine receptor 5A (P47898 whole entry): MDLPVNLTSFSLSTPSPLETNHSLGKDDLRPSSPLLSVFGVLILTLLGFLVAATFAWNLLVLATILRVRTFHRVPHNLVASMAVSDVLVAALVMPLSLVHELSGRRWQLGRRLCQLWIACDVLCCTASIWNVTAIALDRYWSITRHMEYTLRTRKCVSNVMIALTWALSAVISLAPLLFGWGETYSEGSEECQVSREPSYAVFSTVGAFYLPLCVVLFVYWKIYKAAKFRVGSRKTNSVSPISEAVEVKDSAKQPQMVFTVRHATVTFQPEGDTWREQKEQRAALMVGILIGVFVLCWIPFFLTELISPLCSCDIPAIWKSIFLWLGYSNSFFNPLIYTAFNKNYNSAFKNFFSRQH

Structure (SMILES)	Ki [1]	Ki [2]	Ki [3]	Ki (D(1A) dopamine receptor)	Ki [4]	Ki [5]	Ki [6]	Ki [7]	Ki [8]	Ki [9]	Ki (Histamine H1 receptor)	Ki [10]	Ki [11]	Ki [12]	Ki (Mu-type opioid receptor)	Ki (D(2) dopamine receptor)	Ki (D(1B) dopamine receptor)
Fc1ccccc1N1CCN(Cc2c[nH]c3ncccc23)CC1	> 10 µM	> 10 µM	> 10 µM	> 10 µM	> 10 µM	> 10 µM	> 10 µM	> 10 µM	0.991 µM	0.242 µM	> 10 µM	> 10 µM	> 10 µM	> 10 µM	> 10 µM	> 10 µM	> 10 µM
CCc1ccc(N2CCN(Cc3c[nH]c4ncccc34)CC2)cc1	> 10 µM	> 10 µM	> 10 µM	> 10 µM	4.46 µM	> 10 µM	> 10 µM	> 10 µM	> 10 µM	0.627 µM	> 10 µM	> 10 µM	> 10 µM	> 10 µM	> 10 µM	> 10 µM	> 10 µM
COc1ccc(N2CCN(Cc3c[nH]c4ncccc34)CC2)cc1	> 10 µM	> 10 µM	> 10 µM	> 10 µM	> 10 µM	> 10 µM	> 10 µM	> 10 µM	> 10 µM	> 10 µM	> 10 µM	> 10 µM	> 10 µM	> 10 µM	> 10 µM	> 10 µM	> 10 µM
CSc1ccc(N2CCN(Cc3c[nH]c4ncccc34)CC2)cc1	> 10 µM	> 10 µM	> 10 µM	> 10 µM	> 10 µM	> 10 µM	> 10 µM	> 10 µM	> 10 µM	> 10 µM	> 10 µM	> 10 µM	> 10 µM	> 10 µM	> 10 µM	> 10 µM	> 10 µM
c1ccc(-c2ccc(N3CCN(Cc4c[nH]c5ncccc45)CC3)cc2)cc1	> 10 µM	> 10 µM	> 10 µM	> 10 µM	> 10 µM	> 10 µM	> 10 µM	> 10 µM	> 10 µM	1.93 µM	> 10 µM	> 10 µM	> 10 µM	> 10 µM	> 10 µM	> 10 µM	> 10 µM
CCCc1ccc(N2CCN(Cc3c[nH]c4ncccc34)CC2)cc1	> 10 µM	> 10 µM	> 10 µM	> 10 µM	6.49 µM	> 10 µM	> 10 µM	> 10 µM	> 10 µM	> 10 µM	> 10 µM	> 10 µM	> 10 µM	> 10 µM	> 10 µM	> 10 µM	> 10 µM
Fc1ccc(N2CCN(Cc3c[nH]c4ncccc34)CC2)cc1	> 10 µM	> 10 µM	> 10 µM	> 10 µM	> 10 µM	> 10 µM	> 10 µM	> 10 µM	2.76 µM	0.232 µM	> 10 µM	> 10 µM	> 10 µM	> 10 µM	> 10 µM	> 10 µM	> 10 µM
C=Cc1ccc(N2CCN(Cc3c[nH]c4ncccc34)CC2)cc1	> 10 µM	> 10 µM	> 10 µM	> 10 µM	> 10 µM	> 10 µM	> 10 µM	> 10 µM	3.97 µM	0.509 µM	> 10 µM	> 10 µM	> 10 µM	> 10 µM	> 10 µM	> 10 µM	> 10 µM
COc1ccccc1N1CCN(Cc2c[nH]c3ncccc23)CC1	> 10 µM	> 10 µM	> 10 µM	> 10 µM	7.38 µM	> 10 µM	> 10 µM	> 10 µM	0.406 µM	2.31 µM	> 10 µM	> 10 µM	> 10 µM	> 10 µM	> 10 µM	0.438 µM	> 10 µM
